Values of other authors, collected in patent US7670617B2, “Sequential drug delivery systems” (CIMA Labs Inc., priority 2001, dated 2010).

conditions: in animals

Row | SMILES | BIOAVAILABILITY (%)
1 | CC(NC(C)(C)C)C(=O)c1cccc(Cl)c1.Cl (centres unmarked) [Bupropion:HCI] | 5%-20%

conditions: not given

Row | SMILES | pKa
2 | CC(C)(C)NC(=O)[C@@H]1C[C@@H]2CCCC[C@@H]2CN1C[C@@H](O)[C@H](Cc1ccccc1)NC(=O)[C@H](CC(N)=O)NC(=O)c1ccc2ccccc2n1 [Saquinavir] | 7
3 | CC(C)C[C@H]1C(=O)N2CCC[C@H]2[C@]2(O)O[C@](NC(=O)[C@@H]3C=C4c5cccc6[nH]c(Br)c(c56)C[C@H]4N(C)C3)(C(C)C)C(=O)N12 [Bromocriptine] | 4.9
4 | CN1CCc2cccc3c2[C@H]1Cc1ccc(O)c(O)c1-3 [Apomorphine] | 7

conditions: Nasal Spray

Row | SMILES | BIOAVAILABILITY (%)
5 | O=C(O)C(O)C(O)C(=O)O.Oc1ccc2c(c1)[C@@]13CCCC[C@@]1(O)[C@@H](C2)N(CC1CCC1)CC3 [Butorphanol Tartrate] | 60%-70%

same assay, conditions: in vivo

Row | SMILES | BIOAVAILABILITY (%)
6 | Oc1ccc2c3c1O[C@H]1[C@@H](O)CC[C@@]4(O)[C@@H](C2)N(CC2CCC2)CC[C@]314 [Nalbuphine] | 16 (±8) %
7 | CCOC(=O)[C@H](CCc1ccccc1)N[C@H]1CCc2ccccc2N(CC(=O)O)C1=O.Cl [Benazepril:HCI] | 37%
8 | CC(C)C[C@H]1C(=O)N2CCC[C@H]2[C@]2(O)O[C@](NC(=O)[C@@H]3C=C4c5cccc6[nH]c(Br)c(c56)C[C@H]4N(C)C3)(C(C)C)C(=O)N12 [Bromocriptine] | 28%
9 | CCOC(=O)[C@H](CCc1ccccc1)N[C@@H](C)C(=O)N1Cc2cc(OC)c(OC)cc2C[C@H]1C(=O)O [Moexipril] | 13%
10 | Cc1nccn1CC1CCc2c(c3ccccc3n2C)C1=O.Cl (centres unmarked) [Ondansetron:HCI] | 55%
11 | CC(C)(C)NCC(O)c1cc(O)cc(O)c1 (centres unmarked) [Terbutaline sulphate] | 30-70%
12 | COc1cc2nc(N3CCN(C(=O)C4COc5ccccc5O4)CC3)nc(N)c2cc1OC (centres unmarked) [Doxazosin] | 65%
13 | CCOC(=O)[C@H](CCc1ccccc1)N[C@@H](C)C(=O)N1Cc2ccccc2C[C@H]1C(=O)O.Cl [Quinapril•HCI] | 60%
14 | CC(C)NCC(O)COc1cccc2ccccc12.Cl (centres unmarked) [Propranolol:HCI] | 26%
15 | CCOC(=O)[C@H](CCc1ccccc1)N[C@@H](C)C(=O)N1CCC[C@H]1C(=O)O [Enalapril] | 41-60%
16 | CC(C)(C)NC(=O)[C@H]1CC[C@H]2[C@@H]3CC[C@H]4NC(=O)C=C[C@]4(C)[C@H]3CC[C@]12C [Finasteride] | 63%
17 | CC(CCc1ccccc1)NCC(O)c1ccc(O)c(C(N)=O)c1 (centres unmarked) [Labetalol] | 18 ± 5%
18 | CN1CCCC1c1cccnc1 (centres unmarked) [Nicotine] | 16.7 (±8.6%)
19 | CN(C)CCC=C1c2ccccc2COc2ccccc21 [Doxepin] | 27 ± 10%
20 | COc1ccccc1OCCNCC(O)COc1cccc2[nH]c3ccccc3c12 (centres unmarked) [Carvedilol] | 25-35%
